Assay results from patent publication US20130190394A1, “Applications Of Arctigenin In Formulating Drugs For Preventing Or Treating Diseases Related To Red Blood Cell Reduction” (priority 2010, published 2013).
Counter-ions that a name gives are not always drawn. Each block holds one molecule with its values, some of them ahead of it.

Tests used:
[1] = system: Tumor-bearing mice (murine cancer cell line s180); test: Effects of Arctigenin on myelosuppression caused by chemotherapy in tumor-bearing mice (blood routine examination); type: in vivo, Kunming mice; details: for Neutrophil / White Blood Cells / platelet: s180 tumor-bearing mice, 10 days once per day, Docetaxel 75 mg/m^2/d, Imatinib Mesylate 222.2 mg/m^2/d tail vein, Arctigenin 10 mg/m^2/d peritoneal, n=10
Description: (§1) The cell suspension was injected into abdominal cavity of mice under sterile conditions. The mice were sacrificed by cervical dislocation at 7 days after inoculation when the abdominal cavity expanded obviously, and then soaked in a flask with 75% ethanol for 2-3 min. The sterilized mice were placed on a superclean bench with abdomen exposed. The ascites were taken with sterile injectors and stored in sterile vials for further use. The ascites was counted by Trypan blue staining, and then diluted to 2.0×10^7 cell/ml with physiological saline. The animals were inoculated with the dilutions in the right armpit at 0.2 ml/animal.
The inoculated animals were divided randomly into following six groups with 10 animals each group (F:M=1:1): • 1. Model Group (Group M): receiving peritoneal injection of 0.9% physiological saline; • 2. Docetaxel Group (Group D): receiving 75 mg/m^2/d Docetaxel; • 3. […] Arctigenin Group (Group A): receiving 10 mg/m^2/d Arctigenin; • 5. Docetaxel plus Arctigenin Group (Group D+A): receiving 75 mg/m^2/d Docetaxel plus 10 mg/m^2/d Arctigenin; • 6.
(§2) Docetaxel and Imatinib Mesylate were administered via tail vein injection at dosages of 20 ml/kg. Arctigenin was administered via peritoneal injection at a dosage of 10 ml/kg. The administration was given to each group once per day for 10 days in total. During the experimental process, the animals were observed everyday for their diets, survivals and behaviors and weighted every day. At the end of the experiment, the animals were anaesthetized and anatomize to draw blood from abdominal vena cava for blood routine examination, including total white blood cell count, total platelet count and neutrophil count.

[2] = system: mice received ^60Co radiation at 4Gy; test: Effects of Arctigenin on blood cell counts of mice under 60Co radiation; type: in vivo, Kunming mice
Source text: 1.1 Animals: Kunming mice (purchased from National Institute for the Control of Pharmaceutical and Biological Products, China; Laboratory Animal NO: SCXK II-00-0010; female/male ratio at 1:1; Age: 7 weeks; […] The rest mice were included in the experiment. The mice fulfilled the experimental requirements after radiation were divided randomly into the following groups of: model group, group of burdock extract and Arctigenin group (each group: n=10; F/M=1:1). Each group was subjected to treatment or administration as follows: • 1. Normal Group (Group N): peritoneal injection of 0.9% physiological saline at a volume of 10 ml/kg; • 2. Model Group (Group M): peritoneal injection of 0.9% physiological saline at a dose of […]; • 3. Group of burdock Extract (Group E): peritoneal injection of water […] of Arctium lappa at a dose of 3.5 ml/kg/d; • 4. Arctigenin Group (Group A): peritoneal injection of 10 mg/kg/d Arctigenin at a volume of 10 ml/kg. Said burdock extract was prepared by: 1) placing burdock in a pot, adding water till the plant was immerged; 2) soaking burdock for 30 min for promoting the extraction of the effective components; 3) rapidly heating till boiling, fully boiling for 1-3 min, further heating for 20-30 min for concentration, and filtrating through sterile gauzes into a beaker; and 4) mixing the first dose with re-extracted agents uniformly after the first extraction for balancing their effects. 200 ml water extracts were prepared from 1 kg burdock. The administration was given to each group once per day for 10 days in total. During the experimental process, the animals were observed everyday for their diets, survivals and behaviors and weighted every day. At the end of the experiment, the animals were anaesthetized and anatomize to take blood from abdominal vena cava for blood routine examination, including total white blood cell count and total platelet count.

[3] = system: NOD mouse; test: Effects of Arctigenin on white blood cell and platelet of NOD mouse; type: in vivo, NOD/Ltj mice; details: for White Blood Cells / platelets: NOD/Ltj mice, n=13
Source text: Non-obese diabetic or NOD mice is a large mouse strain, including NOD/Scid, NOD/Ltj mice and the like. Yi Feng (Yi Feng, et al., “In vitro Expansion of Cord Blood Megakaryocyte Progenitor”, ACTA Academiae Medicinae Sinicae, Vol. 27, NO. 2, pp 199-204) directly expanded megakaryocyte progenitor from cord blood CD34+ cells by using thrombopoietin (TPO), interleukin-11 (IL-11) and heparin in combination. Intravenous infusion of the megakaryocytes expanded for 7 days (at a concentration of 5×10^6) into NOD/SCID mice received pre-treatment of radiation could accelerate the recovery of platelet and white blood cell account and improved the survival of the mice.
1.1 Animals: 52 NOD/Ltj mice (purchased from Vital River Laboratory Animal Technology Co., Ltd., Beijing; Laboratory Animal NO: SCXK (BJ) 2006-2009), female, Age: 5 weeks, Body weight: 16-20 g.
After one week of adaptive feeding, healthy NOD mice aged of 5 weeks were divided randomly into 4 groups: • I. Model Control Group: 13 animals; • II. Positive Control Group: 13 animals receiving gavage of interleukin at dose of 10.0 mg/kg every day; • III. Low-dose Arctigenin Group: 13 animals receiving gavage of […] at dose of 30 mg/kg every day; • IV. High-dose Arctigenin Group: 13 animals receiving gavage of […] at dose of 60 mg/kg every day.
The administration was given consecutively to each group once per day, and stopped after 15 days. The animals were then anaesthetized (3% pentobarbital sodium via intraperitoneal injection at 0.1˜0.15 ml/animal) and 1 ml blood was taken via abdominal vena cava for blood routine examination.

[4] = Body weight and tolerability of tumor-bearing mice during administration; type: in vivo, Kunming mice; details: for Body weight before administration: mouse, in vivo
Description: as §1, with “The murine cancer cell line s180 was cultured in 1640 culture medium at 37° C., 5% CO2, sub-cultured every two days on average till logarithmic growth phase and then prepared into single cell suspension at 3.0×10^7 cell/ml with physiological saline. The cell” for “The cell”
The inoculated animals were divided randomly into following six groups with 10 animals each group (F:M=1:1): • 1. Model Group (Group M): receiving peritoneal injection of 0.9% physiological saline; • 2. Docetaxel Group (Group D): receiving 75 mg/m^2/d Docetaxel; • 3. Imatinib Mesylate Group (Group IM): receiving 222.2 mg/m^2/d Imatinib Mesylate; • 4. Arctigenin Group (Group A): receiving 10 mg/m^2/d Arctigenin; • 5. Docetaxel plus Arctigenin Group (Group D+A): receiving 75 mg/m^2/d Docetaxel plus 10 mg/m^2/d Arctigenin; • 6. Imatinib Mesylate plus Arctigenin Group (Group IM+A): receiving 222.2 mg/m^2/d Imatinib Mesylate plus 10 mg/m^2/d Arctigenin.
as §2

[5] = mice after 60Co 4 Gy whole body radiation, peritoneal injection once per day for 10 days, Arctigenin 10 mg/kg/d, burdock water extract 3.5 ml/kg/d, n=10
[6] = high-dose, gavage 60 mg/kg every day for 15 days
[7] = low-dose, gavage 30 mg/kg every day for 15 days

Structure (SMILES): COc1cc(C[C@H]2C(=O)OC[C@@H]2Cc2ccc(OC)c(OC)c2)ccc1O [Arctigenin]
- Neutrophil [1]: 1.316 ± 0.15^#**^$$ 10^9/L
- White Blood Cells [1]: 3.530 ± 0.31^##**^$$ 10^9/L
- platelet [1]: 687.4 ± 37.3^## 10^9/L
- Total white blood cell count and total neutrophil count compared with the Docetaxel group and the imatinib mesylate group ([1]; tumor-bearing mice, P<0.01, in words): significant increases in total white blood cell count and total neutrophil count
- Total white blood cell count and total neutrophil count compared with the model group ([1]; tumor-bearing mice, P<0.01 or P<0.05, in words): increase in both the total white blood cell count and the total neutrophil count
- Total white blood cell count and platelet count in comparison with the model group ([2]; 60Co 4 Gy radiated mice, P<0.01 or P<0.05, in words): increase in both total white blood cell count and the platelet count
- White Blood Cells [2, 5]: 4.225 ± 0.51^##$ 10^9/L
- platelet [2, 5]: 596.2 ± 72.5^#$ 10^9/L
- White blood cell counts and platelet counts compared with model group ([3]; NOD mice, low-dose and high-dose groups, in words): significantly higher
- White Blood Cells [3, 6]: 4.225 ± 0.51^##$ 10^9/L
- platelets [3, 6]: 780.2 ± 46.5^##$$ 10^9/L
- White Blood Cells [3, 7]: 3.242 ± 0.45^#$ 10^9/L
- platelets [3, 7]: 730.5 ± 34.6^##$ 10^9/L
- Body weight before administration [4]: 21.1 ± 3.0 g
- Toxic or side effects ([4]; tumor-bearing mice, 10 days administration, in words): does not have significant toxic or side effects

- Neutrophil numbers in comparison with Group M ([1]; tumor-bearing mice, in words): decreased significantly
Structure (SMILES): CC(=O)O[C@@]12CO[C@@H]1C[C@H](O)[C@@]1(C)C(=O)[C@H](O)C3=C(C)[C@@H](OC(=O)[C@H](O)[C@@H](NC(=O)OC(C)(C)C)c4ccccc4)C[C@@](O)([C@@H](OC(=O)c4ccccc4)[C@H]21)C3(C)C [Group D, Docetaxel]
- Neutrophil [1]: 0.670 ± 0.12 10^9/L
- White Blood Cells [1]: 2.773 ± 0.46 10^9/L
- platelet [1]: 450.6 ± 30.5 10^9/L
- Body weight before administration [4]: 21.2 ± 1.8 g

- Neutrophil numbers in comparison with Group M ([1]; tumor-bearing mice, in words): decreased significantly
Structure (SMILES): Cc1ccc(NC(=O)c2ccc(CN3CCN(C)CC3)cc2)cc1Nc1nccc(-c2cccnc2)n1 [Group IM, Imatinib Mesylate]
- Neutrophil [1]: 0.695 ± 0.09 10^9/L
- White Blood Cells [1]: 2.703 ± 0.37 10^9/L
- platelet [1]: 432.9 ± 34.8 10^9/L
- Body weight before administration [4]: 21.3 ± 2.3 g
